Data on 37 compounds can be found in US8946234B2, “Halogen-substituted compounds” (Bayer CropScience AG, priority 2008, dated 2015).

The nature of the first data set: physchem. The class given is physicochemical.
Conditions: not given
Summed up:
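Reversed-phase C18 HPLC (50×4.6 mm, 1.8 micron), 55 °C, 2.0 ml/min, acetonitrile/water with formic acid. Linear gradient 10% to 95% acetonitrile over 4.25 min, then 95% for 1.25 min. logP derived from retention per EEC Directive 79/831 Annex V.A8; MS detection.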
Consider `Cn1nc(C(F)(F)OC(F)(F)C(F)(F)OC(F)(F)F)c(Br)c1C(=O)Nc1ccc(Cl)c(C(=O)NC2CC2)c1` [Ik-117], for which the logP was 4.31^a).
On the same count and under the same terms, the same measure for `Cn1nc(C(F)(F)C(F)(F)C(F)(F)C(F)(F)F)cc1C(=O)Nc1ccc(Cl)c(C(=O)NC2CC2)c1` [Ik-266]: 3.74^a); for `Cn1nc(C(F)(F)C(F)(F)F)c(C(F)(F)F)c1C(=O)Nc1ccc(Cl)c(C(=O)NS(C)(=O)=O)c1` [Ik-24]: 3.13^a).
The same measure, in the same setting: in the case of `Cn1nc(OCC(F)(F)F)c(F)c1C(=O)Nc1ccc(Cl)c(C(=O)NC2CC2)c1` [Ik-260] it was 2.75^a); in that of `CSc1c(Cl)cc(NC(=O)c2c(C(F)(F)F)c(C(F)(F)C(F)(F)F)nn2C)cc1C(=O)NCc1ccccc1` [Ik-202], 4.39^a).
On the same count and under the same terms, the same measure for `CCOC(=O)c1cc(NC(=O)c2c(C(F)(F)F)c(C(F)(F)C(F)(F)F)nn2C)ccc1Cl` [Ik-103]: 4.42^a).
In the case of `Cn1nc(C(F)(F)C(F)(F)F)c(C(F)(F)F)c1C(=O)Nc1cc(F)c(I)c(C(=O)NCC=CCl)c1` [Ik-224], the logP is on record as 3.99^a).
On the same count and under the same terms, the same measure for `Cn1nc(C(F)(F)C(F)(F)F)c(C(F)(F)F)c1C(=O)Nc1cc(F)c(Br)c(C(=O)NCc2ccccc2)c1` [Ik-229]: 4.14^a); for `CC(C)NC(=O)c1cccc(NC(=O)c2c(C(F)(F)F)c(C(F)(F)C(F)(F)F)nn2C)c1Cl` [Ik-77]: 3.47^a); for `Cn1nc(C(F)(F)C(F)(F)F)c(C(F)(F)F)c1C(=O)Nc1cc(F)c(F)c(C(=O)NCC(F)(F)F)c1` [Ik-141]: 3.89^a).
Consider `O=C(NCC=CCl)c1cc(NC(=O)c2nccc(C(F)(F)F)c2Cl)ccc1Cl` [Ie-4], for which the logP is listed as 2.92^a).
The same measure, in the same setting: the same measure for `Cn1nc(C(F)(F)C(F)(F)F)c(C(F)(F)F)c1C(=O)Nc1ccc([N+](=O)[O-])c(C(=O)NCC(F)(F)F)c1` [Ik-181]: 3.58^a); for `Cn1nc(C(F)(F)C(F)(F)F)c(C(F)(F)F)c1C(=O)Nc1cc(Cl)cc(C(=O)NC2CC2)c1Cl` [Ik-170]: 3.78^a).
For `Cn1nc(C(F)(F)C(F)(F)F)c(C(F)(F)F)c1C(=O)Nc1ccc(F)c(C(=O)NC2CC2F)c1` (stereo not drawn) [Ik-168], the logP was 3.35^a).
Still for that read-out and setting: in the case of `CC(C)N(C(=O)c1c(C(F)(F)F)c(C(F)(F)C(F)(F)F)nn1C)c1ccc(Cl)c(C(=O)NC2CC2)c1` [Ik-137] it was 3.74^a); in that of `CC(NC(=O)c1cc(NC(=O)c2c(Br)c(C(F)(F)C(F)(F)F)nn2C)ccc1Cl)C1CC1` (stereo not drawn) [Ik-12], 3.84^a).
The same measure, in the same setting: in the case of `Cn1nc(-c2ccccc2Cl)c(Br)c1C(=O)Nc1ccc(Cl)c(C(=O)NCC(F)(F)F)c1` [Ik-252] it was 3.41^a); in that of `CC(C)NC(=O)c1cc(NC(=O)c2c(Br)c(C(F)(F)C(F)(F)F)nn2C)ccc1Cl` [Ik-27], 3.49^a); in that of `Cn1nc(C(F)(F)C(F)(F)F)c(C(F)(F)F)c1C(=O)Nc1cc(Br)c(I)c(C(=O)NCC(F)(F)F)c1` [Ik-212], 4.15^a).
The same measure, in the same setting: in the case of `Cn1nc(C(F)(F)C(F)(F)F)c(C(F)(F)F)c1C(=O)Nc1cc(C#N)c(Cl)c(C(=O)NC2CC2)c1` [Ik-187] it was 3.40^a).
With `Cn1nc(C(F)(F)C(F)(F)F)c(I)c1C(=O)Nc1ccc(Cl)c(C(=O)NCC(F)(F)F)c1` [Ik-99], the logP is listed as 3.52^a).
Same read-out and setting: in the case of `CC(NC(=O)c1cc(NC(=O)c2c(Br)c(C(F)(F)F)nn2C)ccc1Cl)C(F)(F)F` (stereo not drawn) [Ik-158] it was 3.40^a); in that of `Cn1nc(C2CC2)c(Br)c1C(=O)Nc1ccc(Cl)c(C(=O)NC2CC2)c1` [Ik-235], 2.60^a).
On the same count and under the same terms, the same measure for `Cn1nc(C(F)(F)F)c(Cl)c1C(=O)Nc1ccc(Cl)c(C(=O)NC2CC2F)c1` (stereo not drawn) [Ik-153]: 2.86^a).
For the compound `Cn1nc(C(F)(F)C(F)(F)F)c(C(F)(F)F)c1C(=O)Nc1cc(F)c(Br)c(C(=O)NCC(F)(F)F)c1` [Ik-228], the logP is reported as 3.88^a).
The same measure, in the same setting: the same measure for `Cn1nc(C(F)(F)C(F)(F)F)c(C(F)(F)F)c1C(=O)Nc1cc(Br)cc(C(=O)NC2CC2)c1` [Ik-221]: 3.74^a); for `CSc1c(Br)cc(NC(=O)c2c(C(F)(F)F)c(C(F)(F)C(F)(F)F)nn2C)cc1C(=O)NCC(F)(F)F` [Ik-200]: 4.22^a).

Still in this data set, the particulars now being: HPLC phase inversion (reversed-phase) C18 column, HPLC method a), eluent acetonitrile/water with formic acid; read-out: logP.
In the case of `O=C(NC1CC1)c1cc(NC(=O)c2ncc(Cl)cc2C(F)(F)F)ccc1Cl` [5-chloro-N-[4-chloro-3-(cyclopropylcarbamoyl)phenyl]-3-(trifluoromethyl)pyridine-2-carboxamide], the chromatographic logP stood at 2.55.
Consider `Cn1cc(Br)c(C(F)(Cl)C(F)(F)F)n1` (stereo not drawn) [4-Bromo-1-methyl-3-(1-chloro-1,2,2,2-tetrafluoroethyl)-1H-pyrazole], for which the chromatographic logP is 3.17.
The same measure, in the same setting: the same measure for `COC(=O)c1cc(NC(=O)c2c(C(F)(F)F)c(C(F)(F)C(F)(F)F)nn2C)ccc1Cl` [Methyl 2-chloro-5-({[1-methyl-3-(pentafluoroethyl)-4-(trifluoromethyl)-1H-pyrazol-5-yl]carbonyl}amino)benzoate]: 4.05; for `O=C(O)c1cnc(C(F)(F)C(F)(F)F)nc1C(F)F` [4-(Difluoromethyl)-2-(pentafluoroethyl)pyrimidine-5-carboxylic acid]: 1.8; for `COC(=O)c1cc(N(C(=O)c2c(C(F)(F)F)c(C(F)(F)C(F)(F)F)nn2C)C(=O)c2c(C(F)(F)F)c(C(F)(F)C(F)(F)F)nn2C)ccc1Cl` [Methyl 5-(bis{[1-methyl-3-(pentafluoroethyl)-4-(trifluoromethyl)-1H-pyrazol-5-yl]carbonyl}amino)-2-chlorobenzoate]: 5.85.
On the same count and under the same terms, the same measure for `Cn1nc(C(F)(F)C(F)(F)F)c(C(F)(F)F)c1C(=O)Nc1cc(C(=O)N[C@@H]2C[C@@H]2F)c(Br)cn1` [Ik-128, 5-Bromo-N-[(1R,2S)-2-fluorocyclopropyl]-2-({[1-methyl-3-(pentafluoroethyl)-4-(trifluoromethyl)-1H-pyrazol-5-yl]carbonyl}amino)isonicotinamide]: 3.19.
On the same count and under the same terms, the same measure for `O=C(NC1CC1)c1cc(NC(=O)c2ncc(OCC(F)(F)F)cc2C(F)(F)F)ccc1Cl` [Ii-7, N-[4-Chloro-3-(cyclopropylcarbamoyl)phenyl]-5-(2,2,2-trifluoroethoxy)-3-(trifluoromethyl)pyridine-2-carboxamide]: 2.9; for `Cc1nc(C(F)(F)F)ncc1C(=O)O` [4-Methyl-2-(trifluoromethyl)pyrimidine-5-carboxylic acid]: 1.26; for `Cn1nc(C(F)(F)C(F)(F)F)c(C(F)(F)F)c1C(=O)Nc1ccc(Br)c(C(=O)N[C@@H]2C[C@@H]2F)n1` [Ik-127, N-{3-Bromo[2-(1R,2S)-2-fluorocycloprop-1-ylcarbamoyl]pyrid-6-yl}-1-methyl-3-(pentafluoroethyl)-4-(trifluoromethyl)-1H-pyrazole-5-carboxamide]: 3.29.
As for `COC(=O)c1cc(NC(=O)c2c(C(F)(F)F)c(C(F)(F)C(F)(F)F)nn2C)cnc1Cl` [methyl 2-chloro-5-({[1-methyl-3-(pentafluoroethyl)-4-(trifluoromethyl)-1H-pyrazol-5-yl]carbonyl}amino)nicotinate], the chromatographic logP was found to be 3.7.

The same data set, now with this note: HPLC phase inversion (reversed-phase) C18 column, HPLC on C18 phase inversion column, method a); read-out: logP.
Turning to `Cn1nc(C(F)(F)C(F)(F)F)c(C(F)(F)F)c1C(=O)Nc1cc(C(=O)N[C@@H]2C[C@@H]2F)c(Br)cn1` [Ik-128, 5-Bromo-N-[(1R,2S)-2-fluorocyclopropyl]-2-({[1-methyl-3-(pentafluoroethyl)-4-(trifluoromethyl)-1H-pyrazol-5-yl]carbonyl}amino)isonicotinamide], the chromatographic logP was 3.19.
As to `Cn1nc(C(F)(F)C(F)(F)F)c(C(F)(F)F)c1C(=O)Nc1ccc(Br)c(C(=O)N[C@@H]2C[C@@H]2F)n1` [Ik-127, N-{3-Bromo[2-(1R,2S)-2-fluorocycloprop-1-ylcarbamoyl]pyrid-6-yl}-1-methyl-3-(pentafluoroethyl)-4-(trifluoromethyl)-1H-pyrazole-5-carboxamide], the chromatographic logP was 3.29.
